The values below come from patent US10093630B2, “Pyrazole compounds and methods of making and using same” (ABIDE THERAPEUTICS, INC., priority 2014, dated 2018).

One may read the inhibition as the percentage by which the read-out fell short of the control. As a reminder, the IC50 is the concentration that gives 50% inhibition.

Like-named read-outs stand apart in the source and are kept apart here.

Assay in all cases: In vitro competitive activity-based protein profiling (gel-based, FP-Rh or HT-01 probe)
Type in all cases: biochemical

In one assay the target is T1, ABHD6 (Mus musculus, UniProt Q8R2Y0).
T1 construct: Proteomes (mouse brain membrane fraction or cell lysates); from tissue; host or cells: mouse brain membrane fraction (or cell lysates, not specified)
T1 sequence (Q8R2Y0 1-336): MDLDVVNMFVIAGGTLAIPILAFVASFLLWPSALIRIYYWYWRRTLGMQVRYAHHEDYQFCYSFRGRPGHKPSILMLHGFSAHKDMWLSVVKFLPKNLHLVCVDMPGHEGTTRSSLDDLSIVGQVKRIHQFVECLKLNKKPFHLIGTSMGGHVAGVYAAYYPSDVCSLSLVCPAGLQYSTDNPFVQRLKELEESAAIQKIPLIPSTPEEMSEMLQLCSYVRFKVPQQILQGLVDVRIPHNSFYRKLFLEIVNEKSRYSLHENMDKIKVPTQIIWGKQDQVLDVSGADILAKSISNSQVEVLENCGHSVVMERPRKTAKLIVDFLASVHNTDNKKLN
Particulars: for inhibition at 1 µM: 1 μM inhibitor, read-out: % Inhibition at 1 μM, C = ABHD6; for inhibition at 10 µM: 10 μM inhibitor, read-out: % Inhibition at 10 μM, C = ABHD6. In a few lines: (§1)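 Steps: inhibitor dilutions + proteome (1.0 mg/mL), 30 min, 37° C; add FP-Rh or HT-01 (50 μM DMSO stock), 30 min, 37° C; quench in SDS buffer; SDS-PAGE; gel imaging; band densitometry.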

For another assay, the target named is T2, MAGL (Mus musculus, UniProt O35678).
T2 construct: Proteomes (mouse brain membrane fraction or cell lysates); from tissue; host or cells: mouse brain membrane fraction (or cell lysates, not specified)
T2 sequence (O35678 1-303): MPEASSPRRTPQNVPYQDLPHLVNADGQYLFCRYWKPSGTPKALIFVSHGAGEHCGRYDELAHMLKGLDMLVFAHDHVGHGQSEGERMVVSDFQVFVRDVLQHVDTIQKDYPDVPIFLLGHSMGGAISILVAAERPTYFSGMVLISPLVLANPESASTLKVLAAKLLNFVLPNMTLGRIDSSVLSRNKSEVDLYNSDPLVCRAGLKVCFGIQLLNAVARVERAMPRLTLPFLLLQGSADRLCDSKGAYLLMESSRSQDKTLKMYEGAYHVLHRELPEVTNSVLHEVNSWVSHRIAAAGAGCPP
Particulars: for inhibition at 1 µM: 1 μM inhibitor; for inhibition at 10 µM: 10 μM inhibitor. In a few lines:
as §1

For a further assay, the target named is T3, PLA2G7 (Mus musculus, UniProt Q60963).
T3 construct: Proteomes (mouse brain membrane fraction or cell lysates); from tissue; host or cells: mouse brain membrane fraction (or cell lysates, not specified)
T3 sequence (Q60963 22-440): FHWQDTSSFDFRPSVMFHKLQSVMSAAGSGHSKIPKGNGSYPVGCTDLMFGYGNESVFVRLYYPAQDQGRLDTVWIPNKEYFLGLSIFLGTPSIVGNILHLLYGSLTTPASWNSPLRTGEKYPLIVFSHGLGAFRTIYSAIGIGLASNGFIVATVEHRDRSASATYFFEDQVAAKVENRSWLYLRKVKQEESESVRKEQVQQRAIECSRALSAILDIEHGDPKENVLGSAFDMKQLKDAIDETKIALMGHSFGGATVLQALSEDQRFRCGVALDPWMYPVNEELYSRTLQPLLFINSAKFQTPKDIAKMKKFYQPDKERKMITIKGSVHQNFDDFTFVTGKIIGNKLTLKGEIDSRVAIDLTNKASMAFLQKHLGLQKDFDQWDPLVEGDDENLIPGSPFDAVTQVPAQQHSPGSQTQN
The settings on record: for inhibition at 1 µM: 1 μM inhibitor, read-out: % Inhibition at 1 μM, D = PLA2G7; for inhibition at 10 µM: 10 μM inhibitor, read-out: % Inhibition at 10 μM, D = PLA2G7; for IC50: mouse brain membrane fraction or cell lysates, 30 min preincubation at 37° C. In a few lines:
as §1

In a further assay the target is T4, FAAH (Mus musculus, UniProt O08914).
T4 construct: Proteomes (mouse brain membrane fraction or cell lysates); from tissue; host or cells: mouse brain membrane fraction (or cell lysates, not specified)
T4 sequence (O08914 1-579): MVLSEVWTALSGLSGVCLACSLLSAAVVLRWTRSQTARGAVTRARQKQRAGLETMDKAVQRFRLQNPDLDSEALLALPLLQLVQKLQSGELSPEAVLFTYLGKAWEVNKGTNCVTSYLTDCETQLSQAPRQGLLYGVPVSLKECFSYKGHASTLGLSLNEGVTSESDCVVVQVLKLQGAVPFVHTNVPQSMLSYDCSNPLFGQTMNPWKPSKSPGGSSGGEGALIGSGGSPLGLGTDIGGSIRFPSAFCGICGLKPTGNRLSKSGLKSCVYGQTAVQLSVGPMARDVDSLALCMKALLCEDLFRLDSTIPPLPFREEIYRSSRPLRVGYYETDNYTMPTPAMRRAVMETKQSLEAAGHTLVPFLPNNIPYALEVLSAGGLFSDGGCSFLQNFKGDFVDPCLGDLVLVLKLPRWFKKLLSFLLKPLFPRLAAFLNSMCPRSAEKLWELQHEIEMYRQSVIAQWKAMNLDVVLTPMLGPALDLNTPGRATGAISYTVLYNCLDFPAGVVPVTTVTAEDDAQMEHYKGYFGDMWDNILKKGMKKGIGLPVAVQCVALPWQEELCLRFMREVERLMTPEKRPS
The settings on record: for inhibition at 1 µM: 1 μM inhibitor, read-out: % Inhibition at 1 μM, B = FAAH; for inhibition at 10 µM: 10 μM inhibitor, read-out: % Inhibition at 10 μM, B = FAAH. In a few lines: as §1

Where [1] appears, read: mouse brain membrane fraction or cell lysates, 30 min preincubation at 37° C., read-out: Mouse (IC50 value, nM) ABHD6.
The mark [2] stands for this setting: mouse brain membrane fraction or cell lysates, 30 min preincubation at 37° C., read-out: Mouse (IC50 value, nM) MAGL.
Where [3] appears, read: mouse brain membrane fraction or cell lysates, 30 min preincubation at 37° C., read-out: Mouse (IC50 value, nM) FAAH.

For the compound `O=C(N1CCCCC1)n1cccn1` [Example 1, Piperidin-1-yl(1H-pyrazol-1-yl)methanone], the inhibition at 1 µM at ABHD6, on MAGL, on PLA2G7 and at FAAH was less than 25% throughout. For the same compound, the inhibition at 10 µM at ABHD6 is more than 75%; on MAGL, 25 to 75%; at PLA2G7, 25 to 75%; at FAAH, more than 75%.

For `CN1CCN(C(=O)n2cc(C#N)cn2)CC1` [Example 175, 1-(4-Methylpiperazine-1-carbonyl)-1H-pyrazole-4-carbonitrile], the inhibition at 1 µM at ABHD6 was more than 75%; at MAGL it was 25 to 75%; at PLA2G7, less than 25%; on FAAH it was 25 to 75%. For the same compound, the inhibition at 10 µM on ABHD6, on MAGL, at PLA2G7 and at FAAH was more than 75% throughout.

Take `O=C(N1CCN(Cc2ccccc2)CC1)n1cc(Cl)cn1` [Example 186, (4-Benzylpiperazin-1-yl)(4-chloro-1H-pyrazol-1-yl)methanone]: the IC50 at ABHD6 is less than 100 nM; on MAGL, less than 100 nM; at PLA2G7 it was more than 1000 nM; at FAAH, 100 to 1000 nM. Besides, the inhibition at 1 µM at ABHD6 is more than 75%; at MAGL it was more than 75%; on PLA2G7, less than 25%; at FAAH, more than 75%. Also, the inhibition at 10 µM at ABHD6, at MAGL, at PLA2G7 and on FAAH was more than 75% in each case.

For `COc1cc(-c2ccccc2)ccc1CN1CCN(C(=O)n2cc(C(F)(F)F)cn2)CC1` [Example 144, (4-((3-Methoxybiphenyl-4-yl)methyl)piperazin-1-yl)(4-(trifluoromethyl)-1H-pyrazol-1-yl)methanone], the inhibition at 1 µM at ABHD6, at MAGL, on PLA2G7 and at FAAH was more than 75% each time. Moreover, the inhibition at 10 µM on ABHD6, on MAGL, on PLA2G7 and at FAAH was more than 75% throughout.

`O=C(N1CCN(Cc2ccc(CN3CCOCC3)cc2)CC1)n1cc(Cl)cn1` [Example 214, (4-Chloro-1H-pyrazol-1-yl)(4-(4-(morpholinomethyl)benzyl)piperazin-1-yl)methanone]: the inhibition at 1 µM on ABHD6, at MAGL, at PLA2G7 and on FAAH was more than 75% in each case.

Consider `Cc1cnn(C(=O)NCc2ccc(OCc3ccccc3)cc2)c1` [Example 293, N-(4-(Benzyloxy)benzyl)-4-methyl-1H-pyrazole-1-carboxamide], for which the inhibition at 1 µM at ABHD6 (gel-based competitive ABPP), at MAGL (gel-based competitive ABPP), at PLA2G7 (gel-based competitive ABPP) and at FAAH (gel-based competitive ABPP) was less than 25% in each case.

In the case of `O=C(N1CCCC1)n1cc(C(F)(F)F)cn1` [Example 199, Pyrrolidin-1-yl(4-(trifluoromethyl)-1H-pyrazol-1-yl)methanone], the inhibition at 1 µM was 25 to 75% on ABHD6, less than 25% on MAGL, 25 to 75% at PLA2G7 and more than 75% on FAAH. For the same compound, the inhibition at 10 µM at ABHD6, on MAGL, on PLA2G7 and at FAAH was more than 75% in each case.

Regarding `CCN(Cc1cccc(Cl)c1)C(=O)n1cc(C(F)(F)F)cn1` [Example 244, N-(3-Chlorobenzyl)-N-ethyl-4-(trifluoromethyl)-1H-pyrazole-1-carboxamide], the inhibition at 1 µM on ABHD6 was 25 to 75%; at MAGL it was 25 to 75%; at PLA2G7 it was less than 25%; on FAAH, more than 75%. In addition, the IC50 was more than 1000 nM at ABHD6 (setting [1]), more than 1000 nM on MAGL (setting [2]), more than 1000 nM on PLA2G7 and less than 100 nM on FAAH (setting [3]).

With `Cc1cc(N2CCOCC2)ccc1CN1CCN(C(=O)n2cc(Cl)cn2)CC1` [Example 218, (4-Chloro-1H-pyrazol-1-yl)(4-(2-methyl-4-morpholinobenzyl)piperazin-1-yl)methanone], the inhibition at 1 µM at ABHD6, at MAGL, on PLA2G7 and at FAAH was more than 75% in each case. The half-inhibitory concentration (IC50) on ABHD6 (setting [1]) is 100 to 1000 nM; on MAGL (setting [2]), less than 100 nM; on PLA2G7, 100 to 1000 nM; at FAAH (setting [3]), 100 to 1000 nM.

As for `CCN(Cc1ccccc1OC)C(=O)n1cc(Cl)cn1` [Example 127, 4-Chloro-N-ethyl-N-(2-methoxybenzyl)-1H-pyrazole-1-carboxamide], the inhibition at 1 µM at ABHD6, at MAGL, at PLA2G7 and on FAAH was less than 25% throughout. The inhibition at 10 µM was more than 75% at ABHD6, more than 75% at MAGL, less than 25% at PLA2G7 and more than 75% at FAAH.

On to `COc1cccc(CN2CCN(C(=O)n3cc(C(F)(F)F)cn3)CC2)c1` [Example 271, (4-(3-Methoxybenzyl)piperazin-1-yl)(4-(trifluoromethyl)-1H-pyrazol-1-yl)methanone], for which the inhibition at 1 µM on ABHD6 (gel-based competitive ABPP), on MAGL (gel-based competitive ABPP), on PLA2G7 (gel-based competitive ABPP) and at FAAH (gel-based competitive ABPP) was more than 75% throughout. Besides, the IC50 on ABHD6 (setting [1]), on MAGL (setting [2]), at PLA2G7 and at FAAH (setting [3]) was less than 100 nM throughout.
